From PMC10819521 (Pharmaceutics, 2024)

Test system: voltage-gated calcium channels
Test: Calcium channel blockade (FLIPR Calcium 6 indicator, SH-SY5Y cells)
Format: cell-based, human
Conditions: compounds at 10 µM, KCl/CaCl2 stimulation, n.i. = no inhibition
Protocol: Calcium channel blockade. Evaluation of the calcium channel blockade of compounds 4a–l was performed using the FLIPR Calcium 6 indicator according to a previously established protocol. Briefly, human neuroblastoma cell line SH-SY5Y seeded out on 96-well plate were treated with fluorescent calcium indicator (FLIPR Calcium 6, Molecular Devices). Cells were incubated with indicator for 2 h at 37 °C, facilitating internalization of the indicator. Subsequently, cells were exposed to nimodipine (10 µM, used as reference inhibitor), DMSO (0.1%, used as vehicle control) or our compounds of interest (10 µM) for 10 min also at 37 °C. Following that, cell fluorescence was recorded using a microplate reader (λEx = 485 nm; λEm = 525 nm). Baseline fluorescence was recorded for 5 s. Afterwards, cells were stimulated by the addition of the solution of KCl and CaCl2 (90 and 5 mM, respectively) in order to induce the opening of voltage-gated calcium channels. An increase in fluorescence of calcium indicator after inducing calcium flux was recorded for another 30 s. Data were collected from three independent experiments, with eight technical replicates per experiment. Fluorescence intensity values were normalized to the baseline recorded before the induction of calcium flux. The percentage of inhibition was calculated as a reduction of normalized calcium flux in comparison with the DMSO vehicle control. Outliers were detected using the Grubbs test, and any outlying values were excluded from further analysis.
Calcium channel blockade. The Ca^2+ channel blocking capacity of compounds 4a–l and nimodipine, used as a standard at a concentration of 10 μM, was evaluated according to an established methodology.

## COCCOC(=O)C1=C(C)NC(C)=C(C(=O)OC(C)C)C1c1cccc([N+](=O)[O-])c1 (stereo not shown) [nimodipine, reference compound]
  Calcium Channel Blockade (%): 37%
